{
  "source": "paper PMC7354631",
  "about": "(Toxins, 2020)",
  "key": {"[1]": {"molecular_target": "T1, human serum albumin (HSA) (Homo sapiens, UniProt P02768)", "T1 sequence (P02768 25-609)": "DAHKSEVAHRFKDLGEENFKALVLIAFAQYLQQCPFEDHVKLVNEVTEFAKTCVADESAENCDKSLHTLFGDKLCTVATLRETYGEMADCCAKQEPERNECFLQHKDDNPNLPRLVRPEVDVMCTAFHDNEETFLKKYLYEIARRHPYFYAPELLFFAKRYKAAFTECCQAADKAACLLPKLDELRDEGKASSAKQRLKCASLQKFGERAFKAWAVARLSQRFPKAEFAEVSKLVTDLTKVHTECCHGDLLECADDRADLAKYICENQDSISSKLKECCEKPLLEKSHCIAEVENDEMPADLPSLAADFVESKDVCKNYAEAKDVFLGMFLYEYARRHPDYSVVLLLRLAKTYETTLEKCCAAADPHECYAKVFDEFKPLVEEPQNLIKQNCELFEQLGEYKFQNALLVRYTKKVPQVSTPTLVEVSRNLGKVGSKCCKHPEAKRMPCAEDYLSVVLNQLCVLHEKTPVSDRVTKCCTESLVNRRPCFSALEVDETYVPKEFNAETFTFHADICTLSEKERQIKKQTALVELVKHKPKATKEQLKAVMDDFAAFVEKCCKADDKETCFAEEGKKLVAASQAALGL", "test": "biochemical", "assay_type": "binding"}, "[2]": {"molecular_target": "T1, human serum albumin (HSA)", "assay_type": "binding"}, "[3]": {"molecular_target": "T1, human serum albumin (HSA)", "test": "biochemical", "assay_type": "binding", "remark": "listed apart in the source"}, "[4]": {"molecular_target": "Sudlow’s site I of human serum albumin (HSA) (Homo sapiens, UniProt P02768)", "sequence (P02768 25-609)": "as above", "assay_type": "binding", "conditions": "for warfarin concentration in the filtrate (displacement from site I): pH 7.4"}, "[5]": {"molecular_target": "T1, human serum albumin (HSA)", "assay_type": "binding", "remark": "listed apart in the source"}, "[6]": {"molecular_target": "T1, human serum albumin (HSA)", "conditions": "cited from earlier work"}, "[7]": {"system": "Sudlow’s site II of human serum albumin (HSA)", "conditions": "cited from earlier work"}, "bovine serum albumin": {"system": "bovine serum albumin", "conditions": "cited from earlier work"}, "[8]": {"conditions": "Ka (±SEM) (Hyperquad, Figure 3)"}, "[9]": {"conditions": "association constant of ochratoxin–HSA complex (approximate, summary)"}},
  "note": "Like-named read-outs stand apart in the source and are kept apart here. Marks after values point to notes of the source that are not given here.",
  "data": [
    {"smiles": "C[C@@H]1Cc2ccc(C(=O)N[C@@H](Cc3ccccc3)C(=O)O)c(O)c2C(=O)O1", "note": "[OTB, ochratoxin B]", "values": [
      {"measurement": "HSA concentration enough to achieve complete albumin binding", "setting": "[1]", "value": "5 to 7", "unit": "µM"},
      {"measurement": "emission signal of the ochratoxin with elevation of HSA concentration", "setting": "[1]", "value": "significantly increased"},
      {"measurement": "Kd", "setting": "[1]; [8]", "value": 725, "unit": "nM"},
      {"measurement": "Kd", "setting": "[1]; [9]", "value": "~1000", "unit": "nM"},
      {"measurement": "fluorescence anisotropy in the presence of HSA", "setting": "[2]", "value": "strongly increased"},
      {"measurement": "effect on the emission signal of HSA at 340 nm", "setting": "[3]", "value": "decreased"},
      {"measurement": "KSV (±SEM) (Stern–Volmer Plot, Figure 2)", "setting": "[3]; pH 7.4", "value": "0.57 ± 0.05 ×10^6 L/mol"},
      {"measurement": "location of the high-affinity binding site on HSA", "setting": "[4]", "value": "subdomain IIA"},
      {"measurement": "warfarin concentration in the filtrate (displacement from site I)", "setting": "[4]", "value": "significantly increased"},
      {"measurement": "effect of 10% FBS on the mycotoxin-induced viability loss / toxic effect", "setting": "HepG2 cells", "value": "significantly reduced"},
      {"measurement": "effect of the mycotoxin on cellular ATP levels in the presence of 40 g/L HSA", "setting": "HepG2 cells", "value": "did not affect"},
      {"measurement": "relative cytotoxicity", "setting": "HepG2 cells", "value": "considerably lower toxicity than OTC"}
    ]},
    {"smiles": "CC1=C[C@H]2O[C@@H]3[C@H](O)C[C@](C)([C@@]2(CO)[C@H](O)C1=O)[C@]31CO1", "note": "[DON, Deoxynivalenol]", "values": [
      {"measurement": "spectral position of the n–π* CD band in protein-free buffer vs. high molar excess of HSA", "setting": "[5]; pH 7.4", "value": "practically the same"},
      {"measurement": "effect on the fluorescence emission of HSA", "setting": "[3]", "value": "did not modify"},
      {"measurement": "warfarin concentration in the filtrate (displacement from site I)", "setting": "[4]", "value": "did not alter"},
      {"measurement": "effect of 10% FBS on the mycotoxin-induced viability loss / toxic effect", "setting": "HepG2 cells", "value": "did not affect"},
      {"measurement": "effect of 40 g/L HSA on the toxic effect of the mycotoxin", "setting": "HepG2 cells", "value": "did not affect"},
      {"measurement": "association constant of the complex with HSA", "setting": "[6]", "value": "~46000", "unit": "L/mol"},
      {"measurement": "quenching effect on HSA", "setting": "[6]", "value": "strong quenching effect"}
    ]},
    {"smiles": "CC(=O)OC[C@]12C[C@H](OC(=O)CC(C)C)C(C)=C[C@H]1O[C@@H]1[C@H](O)[C@@H](OC(C)=O)[C@@]2(C)[C@]12CO2", "note": "[T2, T-2 toxin]", "values": [
      {"measurement": "difference of far-UV CD curves of free HSA and HSA+toxin (secondary structure)", "setting": "[5]", "value": "no significant difference"},
      {"measurement": "modification of the near-UV CD spectrum of HSA (245–340 nm)", "setting": "[5]", "value": "unambiguous and relevant spectral modifications could not be registered"},
      {"measurement": "effect on the fluorescence emission of HSA", "setting": "[3]", "value": "did not modify"},
      {"measurement": "warfarin concentration in the filtrate (displacement from site I)", "setting": "[4]", "value": "did not alter"},
      {"measurement": "effect of 10% FBS on the mycotoxin-induced viability loss / toxic effect", "setting": "HepG2 cells", "value": "did not affect"},
      {"measurement": "effect of 40 g/L HSA on the toxic effect of the mycotoxin", "setting": "HepG2 cells", "value": "did not affect"},
      {"measurement": "relative cytotoxicity", "setting": "HepG2 cells", "value": "considerably higher compared to PAT or DON"}
    ]},
    {"smiles": "O=c1cc(-c2ccccc2)oc2c(O)c(O)ccc12", "note": "[7,8-dihydroxyflavone]", "values": [
      {"measurement": "displacement of naproxen from HSA", "setting": "[7]", "value": "statistically significant displacement"}
    ]},
    {"smiles": "O=c1cc(-c2ccccc2)oc2cc(O)cc(O)c12", "note": "[chrysin]", "values": [
      {"measurement": "displacement of naproxen from HSA", "setting": "[7]", "value": "statistically significant displacement"}
    ]},
    {"smiles": "Cc1cc(O)cc2oc(=O)c3c(O)cc(O)cc3c12", "note": "[alternariol, reference compound]", "values": [
      {"measurement": "Ka of the complex with HSA", "setting": "[6]", "value": 400000, "unit": "L/mol"}
    ]},
    {"smiles": "CCOC(=O)[C@H](Cc1ccccc1)NC(=O)c1cc(Cl)c2c(c1O)C(=O)O[C@H](C)C2", "note": "[OTC, ochratoxin C]", "values": [
      {"measurement": "HSA concentration enough to achieve complete albumin binding", "setting": "[1]", "value": "2 to 3", "unit": "µM"},
      {"measurement": "emission signal of the ochratoxin with elevation of HSA concentration", "setting": "[1]", "value": "significantly increased"},
      {"measurement": "Kd", "setting": "[1]; [8]", "value": 62.4, "unit": "nM"},
      {"measurement": "Kd", "setting": "[1]; [9]", "value": "~100", "unit": "nM"},
      {"measurement": "fluorescence anisotropy in the presence of HSA", "setting": "[2]", "value": "strongly increased"},
      {"measurement": "effect on the emission signal of HSA at 340 nm", "setting": "[3]", "value": "decreased"},
      {"measurement": "KSV (±SEM) (Stern–Volmer Plot, Figure 2)", "setting": "[3]; pH 7.4", "value": "0.46 ± 0.06 ×10^6 L/mol"},
      {"measurement": "location of the high-affinity binding site on HSA", "setting": "[4]", "value": "subdomain IIA"},
      {"measurement": "warfarin concentration in the filtrate (displacement from site I)", "setting": "[4]", "value": "significantly increased"},
      {"measurement": "effect of 10% FBS on the mycotoxin-induced viability loss / toxic effect", "setting": "HepG2 cells", "value": "abolished"},
      {"measurement": "effect of the mycotoxin on cellular ATP levels in the presence of 40 g/L HSA", "setting": "HepG2 cells", "value": "did not affect"}
    ]},
    {"smiles": "O=c1cc(-c2ccccc2)oc2cc(OS(=O)(=O)O)cc(O)c12", "note": "[chrysin-7-sulfate]", "values": [
      {"measurement": "displacement of naproxen from HSA", "setting": "[7]", "value": "statistically significant displacement"}
    ]},
    {"smiles": "C[C@H]1CCCC(=O)CCC/C=C/c2cc(O)cc(O)c2C(=O)O1", "note": "[zearalenone, reference compound]", "values": [
      {"measurement": "Ka of the complex with HSA", "setting": "[6]", "value": 120000, "unit": "L/mol"}
    ]},
    {"smiles": "CC1=C2C(=CO[C@H](C)[C@H]2C)C(O)=C(C(=O)O)C1=O", "note": "[citrinin, reference compound]", "values": [
      {"measurement": "Ka of the complex with HSA", "setting": "[6]", "value": 200000, "unit": "L/mol"}
    ]},
    {"smiles": "O=C1C=C2C(=CCOC2O)O1", "note": "(centres unmarked) [PAT, Patulin]", "values": [
      {"measurement": "interaction with bovine serum albumin", "setting": "bovine serum albumin", "value": "weak interaction"},
      {"measurement": "induced CD features on HSA binding", "setting": "[5]", "value": "no induced CD features were observed"},
      {"measurement": "UV spectral changes in the presence of HSA", "setting": "[5]; pH 7.4", "value": "some UV spectral changes could be noticed"},
      {"measurement": "Kd", "setting": "[3]", "value": 72500, "unit": "nM"},
      {"measurement": "effect on the fluorescence emission of HSA", "setting": "[3]", "value": "slightly decreased"},
      {"measurement": "KSV (Stern–Volmer quenching constant)", "setting": "[3]; pH 7.4", "value": "8.23 × 10^3 (±1.12 × 10^3) L/mol"},
      {"measurement": "warfarin concentration in the filtrate (displacement from site I)", "setting": "[4]", "value": "did not alter"},
      {"measurement": "effect of 10% FBS on the mycotoxin-induced viability loss / toxic effect", "setting": "HepG2 cells", "value": "did not affect"},
      {"measurement": "effect of 40 g/L HSA on the toxic effect of the mycotoxin", "setting": "HepG2 cells", "value": "did not affect"},
      {"measurement": "KSV of the complex with HSA", "setting": "[6]", "value": 14000, "unit": "L/mol"}
    ]}
  ]
}
